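Grown in 96-well plates, cells were treated for 48 hours with each compound at five concentrations. Insufficient inhibition: endpoint recorded as highest concentration tested. At the TGI there is no net growth.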

Here are results for 15 molecules from PubChem BioAssay (NCI).

Among the test systems are RXF 393 renal; NCI-H226 lung; 786-0 renal; NCI-H460 lung; M14 melanoma; MALME-3M melanoma; SK-MEL-28 melanoma; EKVX NSCLC; LXFL 529 NSCLC; DMS 273 small cell lung.
Assay in all cases: inhibition of tumour cell growth, NCI panel, 48 h

Regarding `COc1cc2oc(=O)cc(C)c2cc1O`, the TGI in the test on RXF 393 renal, in the test with NCI-H226 lung, in the test with 786-0 renal, in the test on NCI-H460 lung, with M14 melanoma and in the test on MALME-3M melanoma was greater than 100 µM in each case. Besides, the TGI in the test on SK-MEL-28 melanoma and in the test with EKVX NSCLC was greater than 100 µM each time.

As to `COC(OC)C1OCC(n2cc(F)c(=O)[nH]c2=O)C1O` (stereo unspecified), the TGI in the test on RXF 393 renal, in the test with NCI-H226 lung, with 786-0 renal, in the test with NCI-H460 lung, in the test on M14 melanoma and with MALME-3M melanoma was greater than 100 µM each time. Moreover, the TGI with SK-MEL-28 melanoma and in the test with EKVX NSCLC was greater than 100 µM each time.

Take `CCCCCCCCCCCCc1ccc(S(=O)(=O)O)cc1.[Zn+2]`: the TGI with RXF 393 renal, with NCI-H226 lung, in the test on 786-0 renal, in the test on NCI-H460 lung, in the test with M14 melanoma and in the test with MALME-3M melanoma was greater than 100 µM in each case. Further, the TGI in the test with SK-MEL-28 melanoma and in the test on EKVX NSCLC was greater than 100 µM throughout.

As for `CSc1cc(-c2ccccn2)nc(-c2ccccn2)c1`, the TGI in the test on RXF 393 renal was determined as 4.47 µM; with NCI-H226 lung, 0.955 µM; in the test on 786-0 renal it was 11.4 µM; in the test on NCI-H460 lung, 1.88 µM; in the test on M14 melanoma, 0.335 µM; with MALME-3M melanoma, 9.18 µM. The TGI turned out to be 14.8 µM in the test on SK-MEL-28 melanoma and 12.3 µM in the test on EKVX NSCLC.

Regarding `Cc1ccc2c(=O)c(C(=O)Nn3c(C)csc3=S)c[nH]c2n1`, the TGI with RXF 393 renal, in the test on NCI-H226 lung, in the test on 786-0 renal, in the test on NCI-H460 lung, in the test with M14 melanoma and with MALME-3M melanoma was greater than 100 µM in each case. Further, the TGI with SK-MEL-28 melanoma and in the test with EKVX NSCLC was greater than 100 µM throughout.

Consider `C(/Cc1ccc2c(c1)OCO2)=N\NC1=NCCN1`, for which the TGI in the test with RXF 393 renal, in the test with NCI-H226 lung, with 786-0 renal, in the test with NCI-H460 lung, with M14 melanoma and in the test with MALME-3M melanoma was greater than 100 µM throughout. Besides, the TGI with SK-MEL-28 melanoma and in the test with EKVX NSCLC was greater than 100 µM each time.

For the molecule `CCOP(=O)(OCC)C(c1ccccc1)N(C(=O)NC(F)(F)F)c1cccc(F)c1` (stereo unspecified), the TGI in the test on RXF 393 renal, in the test on NCI-H226 lung, in the test with 786-0 renal, in the test with NCI-H460 lung, with M14 melanoma and in the test on MALME-3M melanoma was greater than 100 µM each time. Besides, the TGI in the test with SK-MEL-28 melanoma and in the test on EKVX NSCLC was greater than 100 µM throughout.

For the molecule `CCOC(=O)c1nc2ccccc2nc1Oc1ccc(C(=O)OC)cc1`, the TGI with RXF 393 renal, in the test with NCI-H226 lung, with 786-0 renal, in the test with NCI-H460 lung, with M14 melanoma and in the test with MALME-3M melanoma was greater than 100 µM each time. The TGI in the test with SK-MEL-28 melanoma and with EKVX NSCLC was greater than 100 µM in each case.

With `Cc1ccc(-n2cc(-c3ccc(Cl)cc3)c3c(N/N=C4\SCC(=O)N4C)ncnc32)cc1`, the TGI is 48.1 µM in the test on RXF 393 renal; greater than 100 µM with NCI-H226 lung; 10.6 µM with 786-0 renal; 43.2 µM with NCI-H460 lung; 19.5 µM in the test on M14 melanoma; 9.48 µM in the test with MALME-3M melanoma. Besides, the values for the TGI in the test on SK-MEL-28 melanoma and in the test on EKVX NSCLC were 6.23 µM and greater than 100 µM, respectively.

With `c1ccc(CN[C@]23C4C5CC6C7C5C2C7[C@@](NCc2ccccc2)(C64)N3Cc2ccccc2)cc1` (stereo partly specified), the TGI with RXF 393 renal, in the test with NCI-H226 lung, in the test with 786-0 renal, with NCI-H460 lung, in the test with M14 melanoma and in the test with MALME-3M melanoma was greater than 100 µM each time. For the same molecule, the TGI in the test with SK-MEL-28 melanoma and with EKVX NSCLC was greater than 100 µM each time.

Turning to `O=c1sc2c(s1)-c1sc(=O)sc1SS2`, the TGI with RXF 393 renal was greater than 100 µM; in the test on NCI-H226 lung, greater than 73.1 µM; in the test with 786-0 renal it was greater than 100 µM; in the test on NCI-H460 lung, greater than 100 µM; with M14 melanoma, greater than 100 µM; with MALME-3M melanoma it was greater than 100 µM. The TGI with SK-MEL-28 melanoma and with EKVX NSCLC was greater than 100 µM throughout.

Regarding `O=c1[nH]c(=O)n(C2CC(O)C(CO)O2)cc1NN=NCCCc1ccccc1` (stereo unspecified), the TGI with RXF 393 renal, in the test with NCI-H226 lung, with 786-0 renal, in the test with NCI-H460 lung, in the test with M14 melanoma and with MALME-3M melanoma was greater than 100 µM throughout. Also, the TGI in the test with SK-MEL-28 melanoma and in the test on EKVX NSCLC was greater than 100 µM in each case.

Turning to `COC(=O)C1=C(OC(=O)/C=C/c2ccccc2)C(C(=O)OC)[C@@]2(O)[C@@H](C(=O)OC)[C@H](C)C[C@@H]1[C@@H]2C(=O)OC` (stereo partly specified), the TGI was 34.1 µM with RXF 393 renal; greater than 100 µM with NCI-H226 lung; 50 µM with 786-0 renal; 52.7 µM with NCI-H460 lung; greater than 100 µM in the test on M14 melanoma; 65.5 µM with MALME-3M melanoma. The TGI in the test with SK-MEL-28 melanoma was greater than 100 µM; with EKVX NSCLC, 65.2 µM.

In the case of `Cc1ccc(C(=O)N(Cc2ccccc2)Cc2ccccc2)cc1N=NN(C)C`, the TGI with LXFL 529 NSCLC is 72.4 µM; in the test with DMS 273 small cell lung, greater than 100 µM; with NCI-H226 lung, 56.2 µM; with 786-0 renal it was greater than 100 µM; with NCI-H460 lung, greater than 100 µM; in the test with M14 melanoma it was greater than 81.2 µM. Besides, the TGI in the test on MALME-3M melanoma is 40.6 µM; in the test with SK-MEL-28 melanoma, greater than 69.7 µM; in the test with EKVX NSCLC it was greater than 100 µM.

On to `C=C1c2nc3ccccc3n2C=C(c2ccc(C)cc2)N1c1ccc(C)cc1`, for which the TGI in the test with RXF 393 renal was greater than 96.6 µM; in the test on NCI-H226 lung, greater than 44.4 µM; in the test with 786-0 renal, greater than 100 µM; in the test on NCI-H460 lung it was greater than 100 µM; in the test on M14 melanoma it was greater than 100 µM; in the test with MALME-3M melanoma, greater than 100 µM. Further, the TGI in the test with SK-MEL-28 melanoma and with EKVX NSCLC was greater than 100 µM each time.
